From EP0511759A1, “Biotoxicity test for chemicals” (THE STANDARD OIL COMPANY, priority 1991, dated 1992)

Tested on: Anthophysa vegetans protozoa
Assay: Protozoan feeding-behaviour bioassay: turbidity (absorbance at 540 nm) of live bacterial feed remaining
Assay type: cell-based
Description: The first step of the inventive process comprises adding protozoa and feed into test and control samples which contain inorganic buffers. The chemical substance whose toxic activity is being investigated is then added to the test samples but not to the control samples. The order of adding protozoa, feed and chemical substance is not critical. The amount of protozoa added is usually about at or below 1 x 10⁶ per ml. If dead bacteria are used as feed, they are added at sufficient concentrations to increase the turbidity of the medium to at least 0.3 at 540 nm in a 1.0 cm pathlength tube; this corresponds to concentration of about 2.5 x 10⁹ bacteria per ml. If live bacteria are added as feed, the inoculum level is about 0.01 to about 1% of a fully grown bacterial culture in the range of about 1 x 10⁶ to about 1 x 10⁸ bacteria per ml. […] A sample containing live bacteria is supplemented with a carbon source to support bacterial growth. The carbon sources are generally used at a final concentration of about 0.05%.
This reduction in turbidity generally takes about 1 to about 5 days. If the feed employs live bacteria, there is an initial increase in the turbidity. This increase is then followed by a decrease in turbidity in the control tubes as stated above. If the test chemical is not toxic to the protozoa, the turbidity decreases in the sample tube. If the test chemical is toxic to the protozoa, the turbidity will remain essentially unchanged. The size and volume of the resulting mixture are not critical, provided there is sufficient volume to permit either visual or spectrophotometrical observations of the change in turbidity of the microbial cultures. Typically, about 3 ml to about 5 ml samples were used.
Protozoa, Anthophysa vegetans at about 1 x 10⁵ per ml and a mixed bacteria population of soil bacteria containing but not limited to Alcaligenis and Psuedomonas at about 1 x 10⁶ per ml were inoculated into a growth medium as described above in "Culturing and Test Procedures". The bacteria multiplied in numbers and caused an initial increase in the turbidity (absorbance) of the growth medium, generally from about 0.03 to about 0.4, as measured at 540 nm in a 1.0 cm pathlength tube. After about one day of incubation, the bacterial growth ceased due to the limitation of carbon source. […] The protozoa preyed on the bacteria, leading to a reduction in bacterial cell concentration, indicated by a reduction of turbidity. This growth sequence is illustrated in Line A of Figure 2. If the bacterial cultures were grown without added protozoa, a similar increase in turbidity took place. However, there was no significant reduction in turbidity after the growth phase was completed. This is illustrated in Line B of Figure 2.
Anthophysa vegetans protozoa and live mixed population of soil bacteria containing but not limited to Psuedomonas and Alcaligenis were inoculated into a growth medium as described under "Culturing and Test Procedures". The test chemical, a phenol ethoxylate surfactant, Igepal CO 850 (GAF Chemicals Corp.), was added at different concentrations. A control without added surfactant was maintained. […] However, at about 0 and about 10 ppm surfactant, the absorbance decreased on further incubation. […] The tolerance level of the protozoa, (i.e., the concentration level at which feeding inhibition is first observed) is about 100 ppm Igepal CO 850. […] The protozoa preyed on the bacteria, resulting in reduced absorbance at 540 nm after two days incubation. […]

**Q.** With O=[N+]([O-])c1ccc(O)cc1 [4-nitrophenol] as the compound, how does the LC₅₀ (Protozoa Inocula Level 0.0001X) read?
**A.** 0.46 ppm

**Q.** What about the LC₅₀ (Protozoa Inocula Level 0.001X) of the same compound?
**A.** 5.6 ppm

**Q.** What about the LC₅₀ (Protozoa Inocula Level 0.01X) of the same compound?
**A.** 12.5 ppm

**Q.** What about the LC₅₀ (Protozoa Inocula Level 0.1X) of the same compound?
**A.** 19.5 ppm

**Q.** What about the LC₅₀ (Protozoa Inocula Level 1.0X) of the same compound?
**A.** 36 ppm
